Experimental data: the OligoGym collection
After the bases stand the sugars from the 5' end (letter, count) and the backbone: PS all phosphorothioate, else s phosphorothioate and o phosphodiester by linkage. Methylation of C is not given here. l = locked nucleic acid (LNA); d = 2'-deoxy (DNA)

Biological target: SNHG14
Conditions: ASO
[1] = Mouse Primary Neuronal Cell, 0.005 µM

Sequence | target mRNA inhibition (Human Neuronal Cell, 0.2 µM) [%] | target mRNA inhibition (Human Neuronal Cell, 1 µM) [%] | target mRNA inhibition (Human Neuronal Cell, 7.5 µM) [%] | also measured
CTGTACACAATCAACA (sugars l4 d10 l2, PS) | 54 | 63 |  | 
CTTAGACTTCACCTTTC (sugars l2 d11 l4, PS) | 49 | 41 |  | 
GCTCCATATTTAAATCC (sugars l4 d11 l2, PS) | 20 | 45 |  | 
ACATTATTAACCACCT (sugars l3 d10 l3, PS) | 62 | 64 |  | 
TTTCCATTTATTTCCATTTA (sugars lddddldddddddlddldll, PS) |  |  | 58 | 
ATCATTCTCAACAATTA (sugars l5 d7 l1 d1 l3, PS) |  |  | 54 | 
GAATTCTTTATTCCTCC (sugars l2 d11 l4, PS) | 45 | 41 |  | 
TCTTTCCATTTATTTCCATT (sugars l2 d13 l1 d1 l3, PS) |  |  | 42 | 
TTTTTTCTTACTATCTTCAA (sugars lldlldlddddddddlddll, PS) |  |  | 58 | 
AGCAACATTATTAACCACC (sugars lddldddddddddlldlll, PS) |  |  | 50 | 
GAAAATCTCAACTACCATT (sugars ldllddddddddldldlll, PS) |  |  | 57 | 
TGAAAATCTCAACTACCAT (sugars ldldldddddddldddlll, PS) |  |  | 50 | 
GTCATCTAACTTCTTAC (sugars l3 d11 l3, PS) | 45 | 46 |  | 
TTTTTTTCTTACTATCTTCA (sugars l1 d2 l2 d13 l2, PS) |  |  | 43 | 
CTGTTTATACCCTTTCCA (sugars l1 d3 l1 d11 l2, PS) |  |  | 50 | 
AGCAACATTATTAACCAC (sugars l1 d3 l1 d7 l6, PS) |  |  | 41 | 
CTTTCCATTTATTTCCATT (sugars lddddldddddddddldll, PS) |  |  | 59 | 
TCTTTCCATTTATTTCCAT (sugars l2 d14 l3, PS) |  |  | 43 | 
ACTTCACACCTATTATAT (sugars l3 d12 l3, PS) | 21 | 45 |  | 
AATTTTTTTCTTACTATCTT (sugars l1 d12 l1 d2 l4, PS) |  |  | 62 | 
TTTTTATACCTTTCTTTAAC (sugars l2 d12 l3 d1 l2, PS) |  |  | 62 | 
TTTCCATCTACTATTA (sugars l4 d10 l2, PS) | 60 | 67 |  | 

Sequence | target mRNA inhibition (Human Neuronal Cell, 0.2 µM) [%] | target mRNA inhibition (Human Neuronal Cell, 1 µM) [%] | target mRNA inhibition (Human Neuronal Cell, 7.5 µM) [%] | also measured
TGTTTCCATCTACTATTA (sugars l1 d4 l1 d9 l3, PS) |  |  | 61 | 
AGTTCTACTATACTTTC (sugars l3 d1 l1 d10 l2, PS) |  |  | 64 | 
GCACATTCTTTCTATACC (sugars l1 d4 l1 d10 l2, PS) |  |  | 45 | 
CCTCTGCTTATAACTT (sugars l3 d10 l3, PS) | 47 | 68 |  | 
CTCATACTTGCTTTAAT (sugars l2 d13 l2, PS) | -18 | 13 |  | target mRNA inhibition (Human Neuronal Cell, 5 µM): 17%; target mRNA inhibition [1]: 84.1%
GTTTCCATCTACTATTAAT (sugars ldddlddddddddlddlll, PS) |  |  | 58 | 
ATATTTGTCACCTAAC (sugars l4 d10 l2, PS) | 33 | 32 |  | 
AATTTTTTTCTTACTATCTT (sugars lldldlddddddddlddlll, PS) |  |  | 43 | 
CTCAAAGATCATTCTCA (sugars ldlldddddddlddlll, PS) |  |  | 69 | 
TTTAACCTTGCTTATA (sugars l2 d10 l4, PS) | 23 | 25 |  | 
CCTATGTTAATACTTT (sugars l4 d10 l2, PS) | 25 | 29 |  | 
TCCAGCATATTATATA (sugars l4 d10 l2, PS) | 24 | 10 |  | 
ACACATCTTGTATACA (sugars l4 d10 l2, PS) | 49 | 56 |  | 
ATTCTTACCGTCTTTA (sugars l4 d10 l2, PS) | 49 | 60 |  | 
TTCTTAGTCACACACA (sugars l4 d10 l2, PS) | -3 | -43 |  | 
TTATAGCCATTCTATCT (sugars llldlddddddldddll, PS) |  |  | 52 | 
ACTTAATTATACTTCC (sugars l4 d10 l2, PS) | 62 | 64 |  | 
AAGATCATTCTCAACAAT (sugars lllldldddddddlldll, PS) |  |  | 19 | 
GCAACATTATTAACCACCT (sugars ldldldddddddlddddll, PS) |  |  | 52 | 
ACATCTCATACTTGCT (sugars l4 d10 l2, PS) |  |  |  | target mRNA inhibition [1]: 94.8%
TGAAACTATTACTCCT (sugars l3 d10 l3, PS) | 44 | 61 |  | 
TAAAATTATTTATACACCAT (sugars lddlddlddddddlldllll, PS) |  |  | 2 | 

Sequence | target mRNA inhibition (Human Neuronal Cell, 0.2 µM) [%] | target mRNA inhibition (Human Neuronal Cell, 1 µM) [%] | target mRNA inhibition (Human Neuronal Cell, 7.5 µM) [%] | also measured
TTACCAATAGTTACCT (sugars l3 d10 l3, PS) | 33 | 48 |  | 
TTTATCAATATCTTCTCA (sugars l1 d2 l1 d10 l4, PS) |  |  | 53 | 
CCTTAGTATTACAATT (sugars l4 d10 l2, PS) | 58 | 71 |  | 
CAAAGATCATTCTCAAC (sugars l1 d2 l2 d6 l6, PS) |  |  | 34 | 
AAATTTCCAAACCTTTC (sugars l2 d11 l4, PS) | 42 | 53 |  | 
TTTTTTTCTTACTATCTTCA (sugars ldlddddddddddlddddll, PS) |  |  | 46 | 
GTTTCCATCTACTATTAAT (sugars llddlddddddddddldll, PS) |  |  | 59 | 
CTTCAAGAATTCTCTC (sugars l2 d10 l4, PS) | 44 | 43 |  | 
TTATAGCCATTCTATCT (sugars l1 d10 l2 d2 l2, PS) |  |  | 48 | 
TTTATCAATATCTTCTCACT (sugars lddlddldddddddddldll, PS) |  |  | 58 | 
AGCAACATTATTAACCAC (sugars l3 d9 l3 d1 l2, PS) |  |  | 27 | 
TAAAATTATTTATACACCAT (sugars l2 d1 l2 d11 l4, PS) |  |  | 49 | 
CCTTTCCAATGAATCT (sugars l3 d10 l3, PS) | 45 | 60 |  | 
CTGTATACACCATCCCA (sugars l1 d11 l2 d1 l2, PS) |  |  | 53 | 
CTTTTAACCAGAGTG (sugars l4 d7 l4, PS) |  |  | 54 | 
AGTTCTACTATACTTTCC (sugars l1 d1 l1 d13 l2, PS) |  |  | 40 | 
TTTTAACCAGAGTGGCATC (sugars l4 d13 l2, PS) |  |  | 45 | 
TTTTTTCTTACTATCTTCAA (sugars l1 d4 l1 d10 l4, PS) |  |  | 55 | 
TCAGCTTTTAACCAGAGTGG (sugars l2 d16 l2, PS) |  |  | 70 | 
TTATAGCCATTCTATCT (sugars ldddlddddddldddll, PS) |  |  | 42 | 
AGCTCTAAACCTTCAA (sugars l3 d10 l3, PS) | 40 | 12 |  | 
